Results: patent US11819537B2, “Preventive or therapeutic method for inflammatory skin disease” (Osaka University, priority 2016, dated 2023)

Assays:
[1] = system: psoriatic symptoms caused by the administration of imiquimod (IMQ); assay: Imiquimod-induced psoriatic symptoms in mice, MHP4 hydrophilic petrolatum ointment (Example 8); format: in vivo; conditions: MHP4 hydrophilic petrolatum ointment 375 ng/15 mg per mouse applied every day; 5% imiquimod; BALB/c male mice; FIGS. 11 to 14
Experimental: Specifically, the following procedure was performed according to the dosing schedule shown in FIG. 1 except that the first application of an ointment was performed 6 hours after the first imiquimod application. In Example 1, the RANKL peptide aqueous solution was administered, while a RANKL peptide ointment was administered in this example. As test animals, BALB/c 9-week-old male mice whose back hair was partially removed were prepared. 5% imiquimod (IMQ) was applied to the hair-removed portion in the back and ear of each mouse (62.5 mg per mouse) (day 0 (0 d)). 6 hours later, (1) an MHP4 hydrophilic petrolatum ointment (375 ng (MHP4)/15 mg (hydrophilic petrolatum) per mouse, n=2), hydrophilic petrolatum (control (untreated), n=2), or MCT/BBP (Marduox (tradename) ointment) (15 mg per mouse, n=2) was individually applied to the back and ear. Thereafter, imiquimod and item (1) above were applied every day (from day 1 (1 d)). […] The degree of redness in the back, the degree of white scaling in the back, and the degree of skin thickening in the back were quantified according to the description in the document (van der Fits, L. et al. Imiquimod-induced psoriasis-like skin inflammation in mice is mediated via the IL-23/IL-17 axis. J. Immunol. 182, 5836-45 (2009) (evaluation criteria: none (0), mild (1), moderate (2), severe (3), and very severe (4)). FIGS. 12 to 14 show the results.

[2] = system: TLR7/8 signals (MG6 cells); assay: Proinflammatory cytokine secretion from microglial cells stimulated with R848 (Example 2); format: cell-based, mouse; conditions: R848 1 μg/ml; for increase in the amount of IL-6 secretion by R848: MHP4 7.6, 15.3 or 30.5 μM, FIG. 5a, 5c; for TLR7/8 signals: conclusion from FIG. 5
Experimental: The influence of the RANKL peptide on the amount of proinflammatory cytokines (IL-6 and TFNα) secreted from microglial cells by the stimulation of imidazoquinoline resiquimod (R848 produced by Invitrogen), which is a TLR7/8 ligand, was examined. The specific examination procedures were as follows.
MG6 cells (mouse-derived microglial cell line) were cultured in a DMEM medium (+4% FBS) containing MHP1 or MHP4 (final concentration: 7.6, 15.3, or 30.5 μM) and R848 (final concentration: 1 μg/ml) or a DMEM medium (+4% FBS) containing R848 (final concentration: 1 μg/ml) alone for 24 hours by a standard method. After culturing, the concentrations of IL-6 and TNFα in the medium were measured by the ELISA method. In the Examples of the present application, the ELISA method was performed using a kit (Quantikine ELISA Mouse TNF-a or Quantikine ELISA Mouse IL-6, produced by R&D Systems).

[3] = system: TLR7/8 signals (THP-1 cells); assay: IL-6 secretion from macrophage cells stimulated with R848 (Example 3); format: cell-based, human; conditions: for TLR7/8 signal suppression effects, MHP1 compared with hMHP4: 30.5 μM each; for TLR7/8 signal suppression effects, MHP1 compared with hMHP4 / increase in the amount of IL-6 secretion by R848: FIG. 6; for TLR7/8 signals / increase in the amount of IL-6 secretion by R848: R848 10 μg/ml; for TLR7/8 signals: conclusion from FIG. 6; for increase in the amount of IL-6 secretion by R848: peptide 30.5 μM, 24 hours, ELISA
Experimental: The influence of the RANKL peptide on the amount of proinflammatory cytokines (IL-6) secreted from macrophage cells by the stimulation of a TLR7/8 ligand (R848) was examined. The specific examination procedures were as follows.
THP-1 cells (human-derived macrophage cell line) were cultured in a DMEM medium (+4% FBS) containing MHP1 or hMHP4 (final concentration: 30.5 μM) and R848 (final concentration: 10 μg/ml) or a DMEM medium (+4% FBS) containing R848 (final concentration: 10 μg/ml) alone for 24 hours by a standard method. After culturing, the concentration of IL-6 in the medium was measured by the ELISA method.

[4] = system: psoriatic symptoms caused by the administration of imiquimod (IMQ); assay: Imiquimod-induced psoriatic symptoms in mice, MHP1 aqueous solution (Example 1); format: in vivo; conditions: MHP1 aqueous solution 200 μg/100 μL per mouse applied to back and ear every day; 5% imiquimod; BALB/c female mice; FIGS. 2 to 4
Experimental: As test animals, BALB/c 6-week-old female mice whose back hair was partially removed were prepared. 5% imiquimod (IMQ) was applied to the hair-removed portion in the back and ear of each mouse (62.5 mg per mouse) (day 0 (0 d)). One day later, (1) an MHP1 aqueous solution (200 μg/100 μL per mouse, n=2) or dH2O (control, n=2) was individually applied to the back and ear, followed by the application of (2) 5% imiquimod (IMQ) (62.5 mg per mouse (day 1 (1 d)). Thereafter, items (1) and (2) above were applied every day for 5 days (day 2 to 6 (2 d to 6 d)).
The degree of white scaling in the back was quantified in accordance with the description of the document (van der Fits, L. et al. Imiquimod-induced psoriasis-like skin inflammation in mice is mediated via the IL-23/IL-17 axis. J. Immunol. 182, 5836-45 (2009)) (evaluation criteria: none (0), mild (1), moderate (2), severe (3), and very severe (4)).
Additionally, the ear thickness was measured.

[5] = system: osteoclast precursor cells; assay: Osteoclast differentiation, Osteoclast Culture Kit V-2, TRAP staining (Example 6); format: cell-based; conditions: 7 days
Experimental: Osteoclast Culture Kit V-2 (OSC33, produced by Cosmo Bio Co., Ltd.) was used. According to the manual of the kit, the culturing of osteoclast precursor cells was started in the presence of M-CSF (final concentration: 50 ng/ml) in the A and B groups, and in the presence of M-CSF (final concentration: 50 ng/ml) and MHP1 (final concentration: 30, 50, or 100 μg/ml) in the C and D groups. Thereafter, 24 hours to 7 days after the start of culturing, the A group was cultured in the presence of M-CSF (final concentration: 50 ng/ml), the B group was cultured in the presence of M-CSF (final concentration: 50 ng/ml) and RANKL protein (final concentration: 50 ng/ml), the C group was cultured in the presence of M-CSF (final concentration: 50 ng/ml) and MHP1 (final concentration: 30, 50, or 100 μg/ml), and the D group was cultured in the presence of M-CSF (final concentration: 50 ng/ml), RANKL protein (final concentration: 50 ng/ml), and MHP1 (final concentration: 30, 50, or 100 μg/ml). After culturing, the cells were subjected to TRAP staining and nuclear staining according to a standard method.

NFATc1 and ACP5 mRNA = assay: Osteoclast-related mRNA expression in RAW264.7 cells, real-time RT-PCR (Example 5); format: cell-based; conditions: MHP1 100 μg/ml, collected after 3 days, FIG. 8A, 8B
Experimental: (§1) It has recently been reported that the administration of RANKL protein to mice induces the activation of osteoclasts. Accordingly, the influence of the RANKL peptide on osteoclasts was examined. The specific examination procedures were as follows.
(§2) MHP1 (final concentration: 100 μg/ml) or RANKL protein (final concentration: 10 ng/ml) was added to a medium (DMEM medium (+4% FBS)) in which RAW264.7 cells were cultured, and the cells were collected after 10 minutes and 3 days.
(§3) For the samples collected after 10 minutes, nuclear proteins of the cells were extracted using the Nuclear Extract Kit (Active Motif), and the degree of NFκB (p65) activation was measured by the TransAM NFkB p65 Kit (Active Motif). On the other hand, for the samples collected after 3 days, the mRNA expression levels of NFATc1 and ACP5 were analyzed by real-time RT-PCR.

MG6 cells = assay: Stability of RANKL peptide: cytokine secretion inhibition in LPS-stimulated MG6 cells after storage (Example 7); format: cell-based, mouse
Experimental: The stability of the RANKL peptide was examined. The specific examination procedures were as follows.
MHP1 was dissolved in water to a concentration of 2 mg/ml, and stored at 4° C. for 208 days. Thereafter, MG6 cells (mouse-derived microglial cell line) were cultured in a DMEM medium (+4% FBS) containing MHP1 (final concentration: 100 μg/ml) and LPS (final concentration: 2 ng/ml) for 24 hours by a standard method. After culturing, the concentrations of IL-6 and TNFα in the medium were measured by the ELISA method.

NFκB (p65) = NFκB (p65) activation in RAW264.7 cells, TransAM NFkB p65 Kit (Example 5); format: cell-based; conditions: MHP1 100 μg/ml, collected after 10 minutes, FIG. 8C
Experimental: as §1, §2, §3

Sequence	psoriasis symptoms (back photographs, degree of redness, white scaling, skin thickening) [1]	increase in the amount of IL-6 secretion by R848 ([2]; MHP1 30.5 μM, 24 hours, ELISA)	TLR7/8 signals [2]	TLR7/8 signal suppression effects, MHP1 compared with hMHP4 [3]	TLR7/8 signals [3]	increase in the amount of IL-6 secretion by R848 [3]	psoriatic symptoms (back photographs, degree of white scaling, ear thickness) [4]	differentiation of osteoclasts when MHP1 was added (without RANKL protein) ([5]; M-CSF 50 ng/ml and MHP1 30, 50 or 100 μg/ml, TRAP and nuclear staining, FIG. 9 (b))	differentiation of osteoclasts promoted by RANKL ([5]; M-CSF 50 ng/ml, RANKL protein 50 ng/ml and MHP1 30, 50 or 100 μg/ml, TRAP staining, FIG. 9 (a))	expression of osteoclast-related mRNA (NFATc1, ACP5) (NFATc1 and ACP5 mRNA)	stability (MG6 cells; 2 mg/ml in water, 4° C., 208 days)	proinflammatory cytokine (IL-6, TNFα) secretion-inhibiting effect after long-term storage (MG6 cells; MHP1 2 mg/ml in water stored at 4° C. for 208 days, then 100 μg/ml with LPS 2 ng/ml, MG6 cells, 24 hours, FIG. 10)	NFκB (p65) activation (NFκB (p65))	increase in the amount of TNFα secretion by R848 ([2]; MHP1 30.5 μM, 24 hours, ELISA, FIG. 5b)
LMVYVVKTSIKIPSS (listed as Mus musculus) [MHP4]	improved psoriasis symptoms	suppressed	suppressed the TLR7/8 signals	–	–	–	–	–	–	–	–	–	–	–
LMVYVTKTSIKIPSS (listed as Homo sapiens) [hMHP4]	–	–	–	similar	suppressed the TLR7/8 signals	suppressed	–	–	–	–	–	–	–	–
LMVYVVKTSIKIPSSHNLMKGGSTKNWSGN (listed as Mus musculus) [MHP1]	–	suppressed	suppressed the TLR7/8 signals	similar	suppressed the TLR7/8 signals	suppressed	improved psoriatic symptoms	did not occur	inhibited	did not promote	high	in the same manner as MHP1 before storage	slightly activated	suppressed
